Reference: patent publication US20250351832A1, “PHYTOCHEMICALS AS BIOPESTICIDES AND BIOSTIMULANTS” (KAY BEE BIO ORGANICS PVT. LTD., priority 2024, published 2025)
Like-named read-outs stand apart in the source and are kept apart here.

Columns and labels:
Alternaria alternata [1] = assay: Alternaria leaf spot/blight on inoculated tomato plants (Ex. 28); assay type: in vivo; settings: tomato plants, Alternaria alternata; after 7 days; dose 1 ml/gm/lit
Thrips [2] = assay: Greenhouse effect on thrips, cotton plants (Ex. 27); settings: in vivo
Thrips [3] = settings: 48 h, 1 mL or g/L
Thrips [4] = settings: 48 h
Mealy Bug [5] = assay: Green house effect on mealy bugs, cotton plants (Ex. 24); settings: in vivo
Mite [6] = assay: Green house effect on mite, okra plants (Ex. 23); settings: in vivo
Mite [7] = settings: Dose 1 ml/gm/lit.; 48 hrs
chili seedlings = assay: Response of chili plants, greenhouse growth (Ex. 31); assay type: in vivo
Aphid [8] = assay: whole plant or invertebrate; settings: 48 h
Helicoverpa armigera [9] = assay: Controlled conditions, Helicoverpa armigera on chickpea plants (Ex. 25); settings: in vivo
Aphid [10] = tested on: Aphid
[11] = cited from earlier work; for Phytotonic Effect: Table 13, effect on plants, descriptive
Mealy Bug [12] = assay: In vitro bio-efficacy against mealy bug (Ex. 16); settings: in vivo
Spodoptera litura [13] = assay: Controlled conditions, Spodoptera litura on cabbage plants (Ex. 26); settings: in vivo
Spodoptera litura [14] = settings: 72 h, 1 mL or g/L
tomato seedlings = assay: Response of tomato plants, greenhouse growth (Ex. 30); assay type: in vivo
Spodoptera litura [15] = assay: whole plant or invertebrate; settings: 72 h
Thrips [16] = assay: whole plant or invertebrate; settings: in Gossypium hirsutum, 48 h
Alternaria alternata [17] = assay: In vitro poisoned food technique against fungus (Ex. 20); assay type: cell-based; settings: poisoned food technique, PDA medium, dose 1 ml/gm/lit., after seven days; for inhibition of growth at 1 mL or g/L: vs untreated control, read-out: % Inhibition of growth
Helicoverpa armigera [18] = assay: In vitro bio-efficacy against Helicoverpa armigera (Ex. 17); settings: in vivo
Aphid [19] = settings: 48 h, 1 mL or g/L
[20] = chili seedlings, dose 1 ml/gm/lit, 5th day after application
[21] = chili seedlings, dose 1 ml/gm/lit, 10th day
[22] = chili seedlings, dose 1 ml/gm/lit, 10th day after application
[23] = read-out: % Corrected Mortality at 48 Hrs.
[24] = read-out: % Mortality at 48 Hrs.
[25] = Table 13, descriptive, no test described
[26] = tomato seedlings, 5th day after application, dose 1 ml/gm/lit
[27] = tomato seedlings, 10th day after application, dose 1 ml/gm/lit
[28] = tomato seedlings, 10th day, dose 1 ml/gm/lit
[29] = tomato seedlings, dose 1 ml/gm/lit, 10th day
[30] = read-out: % Corrected Mortality at 72 Hrs.
[31] = read-out: % Mortality at 72 Hrs.

Compound: C=CCc1ccc(OC)c(O)c1 [Chavibetol]
- % Disease reduction over Control (Alternaria alternata [1]): 47.11%
- % Corrected Mortality at 48 Hrs. (Thrips [2]): 47.22%
- Total No. of dead insect at 48 Hrs. (Thrips [3]): 5.25
- Total No. of dead insect at 48 Hrs. (Thrips [4]): 52.50
- % Corrected Mortality at 48 Hrs. (Mealy Bug [5]): 38.89%
- % Mortality at 48 Hrs. (Mealy Bug [5]): 45.00%
- % Corrected Mortality at 48 Hrs. (Mite [6]): 18.42%
- % Mortality at 48 Hrs. (Mite [6]): 22.50%
- % Corrected Mortality at 48 Hrs. (Mite [7]): 18.92%
- % Mortality at 48 Hrs. (Mite [7]): 25.00%
- CCI Pre (chili seedlings): 9.82
- Plant Height (cm) Pre (chili seedlings): 4.39 cm
- CCI 5th Day (chili seedlings; [20]): 14.58
- Plant Height (cm) 5th Day (chili seedlings; [20]): 5.07 cm
- CCI % Increase over pre on 10th Day (chili seedlings; [21]): 52.55%
- Plant Height % Increase over pre on 10th Day (chili seedlings; [21]): 59.00%
- Root Lenght (cm) 10th Day (chili seedlings; [21]): 3.60 cm
- Stem Girth % Increase over pre on 10th Day (chili seedlings; [21]): 45.45%
- CCI 10th Day (chili seedlings; [22]): 14.98
- Plant Height (cm) 10th Day (chili seedlings; [22]): 6.98 cm
- Root Lenght % Increase over control (chili seedlings; chili seedlings, dose 1 ml/gm/lit, 10th day, vs water control): 31.63%
- mortality at 1 mL or g/L (Aphid [8]; [23]): 47.1%
- mortality at 1 mL or g/L (Aphid [8]; [24]): 55%
- % Corrected Mortality at 72 Hrs. (Helicoverpa armigera [9]): 47.50%
- % Mortality at 72 Hrs. (Helicoverpa armigera [9]): 47.50%
- Total No. of dead insect at 48 Hrs. (Aphid [10]): 5.50
- % Corrected Mortality at 48 Hrs. (Aphid [10]; Dose 1 ml/gm/lit., 48 hrs): 48.57%
- Antioxidant Activity - Mode of action [11, 25]: Increasing Antioxidative
- Bactericidal Activity - Mode of action [11, 25]: Inhibit the reproduction
- Insecticidal Activities - Mode of action [11, 25]: Repellent
- Phytotonic Effect [11]: trigger seed
- % Corrected Mortality at 48 Hrs. (Mealy Bug [12]): 36.84%
- % Mortality at 48 Hrs. (Mealy Bug [12]): 40.00%
- % Corrected Mortality at 72 Hrs. (Spodoptera litura [13]): 41.05%
- % Mortality at 72 Hrs. (Spodoptera litura [13]): 44.00%
- Total No. of dead insect at 72 Hrs. (Spodoptera litura [14]): 4.25
- Plant Height 5th Day (tomato seedlings; [26]): 7.26 cm
- Stem Girth 5th Day (tomato seedlings; [26]): 1.49 mm
- Plant Height 10th Day (tomato seedlings; [27]): 8.34 cm
- Stem Girth 10th Day (tomato seedlings; [27]): 2.25 mm
- Plant Height % Increase over pre on 10th Day (tomato seedlings; [28]): 36.50%
- Stem Girth % Increase over pre on 10th Day (tomato seedlings; [28]): 60.71%
- CCI 5th Day (tomato seedlings; tomato seedlings, dose 1 ml/gm/lit, 5th day after application): 14.68
- CCI % Increase over pre on 10th Day (tomato seedlings; [29]): 32.22%
- Root Length (cm) 10th Day (tomato seedlings; [29]): 4.69 cm
- CCI 10th Day (tomato seedlings; tomato seedlings, dose 1 ml/gm/lit, 10th day after application): 16.58
- Root Length % Increase over control (tomato seedlings; tomato seedlings, dose 1 ml/gm/lit, 10th day, vs water control): 41.03%
- mortality at 1 mL or g/L (Spodoptera litura [15]; [30]): 39.5%
- mortality at 1 mL or g/L (Spodoptera litura [15]; [31]): 42.5%
- mortality at 1 mL or g/L (Thrips [16]; [23]): 45.7%
- mortality at 1 mL or g/L (Thrips [16]; [24]): 52.5%
- Mean colony Diameter (mm) (Alternaria alternata [17]): 55.50 mm
- inhibition of growth at 1 mL or g/L (Alternaria alternata [17]): 36.9%
- % Corrected Mortality at 72 Hrs. (Helicoverpa armigera [18]): 42.50%
- % Mortality at 72 Hrs. (Helicoverpa armigera [18]): 42.50%
- Total No. of dead insect at 48 Hrs. (Aphid [19]): 55.00

Compound: C=CCc1ccc(O)c(OC)c1 [Eugenol]
- % Corrected Mortality at 48 Hrs. (Thrips [2]): 19.44%
- % Mortality at 48 Hrs. (Thrips [2]): 27.50%
- Total No. of dead insect at 48 Hrs. (Thrips [3]): 2.50
- Total No. of dead insect at 48 Hrs. (Thrips [4]): 27.50
- % Corrected Mortality at 48 Hrs. (Mealy Bug [5]): 72.22%
- % Mortality at 48 Hrs. (Mealy Bug [5]): 75.00%
- % Corrected Mortality at 48 Hrs. (Mite [6]): 50.00%
- % Mortality at 48 Hrs. (Mite [6]): 52.50%
- % Corrected Mortality at 48 Hrs. (Mite [7]): 48.65%
- CCI Pre (chili seedlings): 10.10
- Plant Height (cm) Pre (chili seedlings): 4.57 cm
- CCI 5th Day (chili seedlings; 120 h): 13.40
- Plant Height (cm) 5th Day (chili seedlings; 120 h): 6.53 cm
- CCI 10th Day (chili seedlings; 240 h): 15.48
- Plant Height (cm) 10th Day (chili seedlings; 240 h): 7.59 cm
- Root Lenght % Increase over control (chili seedlings; 240 h): 52.07%
- CCI % Increase over pre on 10th Day (chili seedlings; [21]): 53.27%
- Plant Height % Increase over pre on 10th Day (chili seedlings; [21]): 66.08%
- Root Lenght (cm) 10th Day (chili seedlings; [21]): 4.16 cm
- Stem Girth % Increase over pre on 10th Day (chili seedlings; [21]): 54.59%
- mortality at 1 mL or g/L (Aphid [8]; [23]): 58.8%
- mortality at 1 mL or g/L (Aphid [8]; [24]): 65%
- % Corrected Mortality at 72 Hrs. (Helicoverpa armigera [9]): 42.50%
- % Mortality at 72 Hrs. (Helicoverpa armigera [9]): 42.50%
- Total No. of dead insect at 48 Hrs. (Aphid [10]): 6.00
- % Corrected Mortality at 48 Hrs. (Aphid [10]; Dose 1 ml/gm/lit., 48 hrs): 54.29%
- % Mortality at 48 Hrs. (Aphid [10]; Dose 1 ml/gm/lit., 48 hrs): 60.00%
- Acaricidal Activity - Mode of action [11, 25]: Inhibitory effects against
- Antifungal Activity - Mode of action [11, 25]: Inhibition of myceial growth
- Antioxidant Activity - Mode of action [11, 25]: Scavenge free radicals,
- Bactericidal Activity - Mode of action [11, 25]: Alters membrane permeability
- Insecticidal Activities - Mode of action [11, 25]: Growth inhibitory,
- Nematicidal Activity - Mode of action [11, 25]: Inhibited egg differentiation
- Virucidal Activity - Mode of action [11, 25]: Inactivated the cell-free
- Phytotonic Effect [11]: Regulating
- % Corrected Mortality at 48 Hrs. (Mealy Bug [12]): 63.16%
- % Mortality at 48 Hrs. (Mealy Bug [12]): 65.00%
- % Corrected Mortality at 72 Hrs. (Spodoptera litura [13]): 60.53%
- % Mortality at 72 Hrs. (Spodoptera litura [13]): 62.50%
- Total No. of dead insect at 72 Hrs. (Spodoptera litura [14]): 6.00
- CCI Pre (tomato seedlings): 11.50
- Plant Height Pre (tomato seedlings): 5.65 cm
- Stem Girth Pre (tomato seedlings): 1.34 mm
- CCI 5th Day (tomato seedlings; 120 h): 13.74
- Plant Height 5th Day (tomato seedlings; 120 h): 6.66 cm
- Stem Girth 5th Day (tomato seedlings; 120 h): 1.70 mm
- CCI 10th Day (tomato seedlings; 240 h): 15.48
- Plant Height 10th Day (tomato seedlings; 240 h): 7.56 cm
- Root Length % Increase over control (tomato seedlings; 240 h): 31.25%
- Stem Girth 10th Day (tomato seedlings; 240 h): 2.31 mm
- Plant Height % Increase over pre on 10th Day (tomato seedlings; [28]): 33.81%
- Stem Girth % Increase over pre on 10th Day (tomato seedlings; [28]): 72.90%
- CCI % Increase over pre on 10th Day (tomato seedlings; [29]): 34.61%
- Root Length (cm) 10th Day (tomato seedlings; [29]): 4.37 cm
- mortality at 1 mL or g/L (Spodoptera litura [15]; [30]): 57.9%
- mortality at 1 mL or g/L (Spodoptera litura [15]; [31]): 60%
- mortality at 1 mL or g/L (Thrips [16]; [23]): 14.3%
- mortality at 1 mL or g/L (Thrips [16]; [24]): 25%
- inhibition of growth at 1 mL or g/L (Alternaria alternata [17]): 42.6%
- % Corrected Mortality at 72 Hrs. (Helicoverpa armigera [18]): 47.50%
- % Mortality at 72 Hrs. (Helicoverpa armigera [18]): 47.50%
- Total No. of dead insect at 48 Hrs. (Aphid [19]): 65.00
